In ChEMBL document CHEMBL1145130, “S-acyl-2-thioethyl phosphoramidate diester derivatives as mononucleotide prodrugs” (J Med Chem, 2003):

Tests used:
CEM-SS = assay: Cytotoxic concentration required to reduce viability of uninfected cells in CEM-SS cell line; assay type: functional; conditions: Homo sapiens
[1] = test system: Human immunodeficiency virus 1; assay: Effective concentration required to inhibit HIV-1 replication in CEM/TK cell line; assay type: functional, organism-based; conditions: Human immunodeficiency virus 1, CEM-TK(-)
MT4 = assay: Cytotoxic concentration required to reduce viability of uninfected cells in MT-4 cell line; assay type: functional; conditions: Homo sapiens
[2] = test system: Human immunodeficiency virus 1; assay: Effective concentration required to inhibit HIV-1 replication in MT-4 cell line; assay type: functional, organism-based; conditions: Human immunodeficiency virus 1, MT4
CEM-TK(-) (Homo sapiens) = assay: Compound was tested for its cytotoxic concentration required to reduce viability of uninfected cells in CEM/TK(-) cell line
[3] = test system: Human immunodeficiency virus 1; assay: Effective concentration required to inhibit HIV-1 replication in CEM-SS cell line; assay type: functional, organism-based; conditions: Human immunodeficiency virus 1, CEM-SS
CEM/TK- (Homo sapiens) = assay: Cytotoxic concentration required to reduce viability of uninfected cells in CEM/TK cell line

For `COC(=O)C(C)(C)NP(=O)(OCCSC(=O)C(C)(C)C)OCC1OC(n2cc(C)c(=O)[nH]c2=O)CC1N=[N+]=[N-]` (stereo not given), which CC50 (CEM-SS) is on record?
The CC50 was greater than 100000 nM.

And the EC50 [1]?
Its EC50 is 2900 nM.

What about the CC50 (MT4) of the same compound?
Its CC50 is greater than 100000 nM.

And the EC50 [2]?
Its EC50 is 540 nM.

And the CC50 (CEM-TK(-) (Homo sapiens))?
Its CC50 is greater than 100000 nM.

What about the EC50 [3] of the same compound?
Its EC50 is 80 nM.

Which CC50 (CEM-SS) does the source give for `COC(=O)[C@@H](C)NP(=O)(OCCSC(=O)C(C)(C)C)OCC1OC(n2cc(C)c(=O)[nH]c2=O)CC1N=[N+]=[N-]` (stereo not given in full) here?
Its CC50 is greater than 100000 nM.

And the EC50 [1]?
Its EC50 is 2400 nM.

What about the CC50 (MT4) of the same compound?
Its CC50 is greater than 100000 nM.

And the EC50 [2]?
Its EC50 is 450 nM.

What about the CC50 (CEM/TK- (Homo sapiens)) of the same compound?
The CC50 was greater than 100000 nM.

And the EC50 [3]?
The EC50 was 70 nM.

How did the CC50 (CEM-SS) turn out when `COC(=O)C(C)NP(=O)(OCCSC(=O)C(C)(C)C)OCC1OC(n2cc(C)c(=O)[nH]c2=O)CC1N=[N+]=[N-]` (stereo not given) was run?
The CC50 was greater than 100000 nM.

What about the EC50 [1] of the same compound?
Its EC50 is 2100 nM.

What about the CC50 (MT4) of the same compound?
Its CC50 is greater than 100000 nM.

What about the EC50 [2] of the same compound?
The EC50 was 420 nM.

What about the CC50 (CEM/TK- (Homo sapiens)) of the same compound?
The CC50 was greater than 100000 nM.

What about the EC50 [3] of the same compound?
Its EC50 is 20 nM.

Which CC50 (CEM-SS) does the source give for `CCC(NP(=O)(OCCSC(=O)C(C)(C)C)OCC1OC(n2cc(C)c(=O)[nH]c2=O)CC1N=[N+]=[N-])C(=O)OC` (stereo not given) here?
The CC50 was greater than 100000 nM.

And the EC50 [1]?
Its EC50 is 2400 nM.

What about the CC50 (MT4) of the same compound?
Its CC50 is greater than 100000 nM.

And the EC50 [2]?
The EC50 was 130 nM.

And the CC50 (CEM/TK- (Homo sapiens))?
The CC50 was greater than 100000 nM.

What about the EC50 [3] of the same compound?
Its EC50 is 6 nM.

With `COC(=O)[C@H](CO[Si](C)(C)C(C)(C)C)NP(=O)(OCCSC(=O)C(C)(C)C)OCC1OC(n2cc(C)c(=O)[nH]c2=O)CC1N=[N+]=[N-]` (stereo not given in full) as the compound, how does the CC50 (CEM-SS) read?
Its CC50 is greater than 10000 nM.

And the EC50 [1]?
Its EC50 is 1000 nM.

What about the CC50 (MT4) of the same compound?
The CC50 was greater than 10000 nM.

What about the EC50 [2] of the same compound?
Its EC50 is 400 nM.

What about the CC50 (CEM/TK- (Homo sapiens)) of the same compound?
The CC50 was greater than 10000 nM.

And the EC50 [3]?
Its EC50 is 100 nM.

With `COC(=O)CNP(=O)(OCCSC(=O)C(C)(C)C)OCC1OC(n2cc(C)c(=O)[nH]c2=O)CC1N=[N+]=[N-]` (stereo not given) as the compound, how does the CC50 (CEM-SS) read?
Its CC50 is greater than 100000 nM.

What about the EC50 [1] of the same compound?
Its EC50 is 1400 nM.

And the CC50 (MT4)?
The CC50 was greater than 100000 nM.

What about the EC50 [2] of the same compound?
Its EC50 is 450 nM.

And the CC50 (CEM/TK- (Homo sapiens))?
The CC50 was greater than 100000 nM.

And the EC50 [3]?
The EC50 was 9 nM.

Which CC50 (CEM-SS) does the source give for `COC(=O)[C@H](C)NP(=O)(OC[C@H]1O[C@@H](n2cc(C)c(=O)[nH]c2=O)C[C@@H]1N=[N+]=[N-])Oc1ccccc1` (stereo not given in full) here?
Its CC50 is greater than 100000 nM.

And the EC50 [1]?
Its EC50 is 4300 nM.

And the CC50 (MT4)?
Its CC50 is greater than 10000 nM.

And the EC50 [2]?
The EC50 was 340 nM.

And the CC50 (CEM/TK- (Homo sapiens))?
Its CC50 is greater than 100000 nM.

What about the EC50 [3] of the same compound?
Its EC50 is 50 nM.

For `Cc1cn(C2CC(N=[N+]=[N-])C(COP(=O)(NC(C)C)OCCSC(=O)C(C)(C)C)O2)c(=O)[nH]c1=O` (stereo not given), which CC50 (CEM-SS) is on record?
Its CC50 is greater than 100000 nM.

What about the EC50 [1] of the same compound?
The EC50 was 750 nM.

And the CC50 (MT4)?
Its CC50 is greater than 100000 nM.

And the EC50 [2]?
Its EC50 is 130 nM.

What about the CC50 (CEM/TK- (Homo sapiens)) of the same compound?
The CC50 was greater than 100000 nM.

And the EC50 [3]?
The EC50 was 20 nM.

Which results are given for `COC(=O)[C@H](Cc1ccc(O)cc1)NP(=O)(OCCSC(=O)C(C)(C)C)OCC1OC(n2cc(C)c(=O)[nH]c2=O)CC1N=[N+]=[N-]` (stereo not given in full)?
CC50 (CEM-SS): > 100000 nM; EC50 [1]: 5300 nM; CC50 (MT4): > 100000 nM; EC50 [2]: 740 nM; CC50 (CEM/TK- (Homo sapiens)): > 100000 nM; EC50 [3]: 90 nM

For `Cc1cn(C2CC(N=[N+]=[N-])C(COP(=O)(OCCSC(=O)C(C)(C)C)N3CCCCC3)O2)c(=O)[nH]c1=O` (stereo not given), which CC50 (CEM-SS) is on record?
Its CC50 is greater than 100000 nM.

And the EC50 [1]?
The EC50 was 5200 nM.

What about the CC50 (MT4) of the same compound?
Its CC50 is greater than 100000 nM.

And the EC50 [2]?
The EC50 was 220 nM.

What about the CC50 (CEM/TK- (Homo sapiens)) of the same compound?
The CC50 was greater than 100000 nM.

What about the EC50 [3] of the same compound?
Its EC50 is 20 nM.

Which results are given for `COC(=O)[C@H](Cc1ccccc1)NP(=O)(OCCSC(=O)C(C)(C)C)OCC1OC(n2cc(C)c(=O)[nH]c2=O)CC1N=[N+]=[N-]` (stereo not given in full)?
CC50 (CEM-SS): > 100000 nM; EC50 [1]: 2300 nM; CC50 (MT4): > 10000 nM; EC50 [2]: 250 nM; CC50 (CEM/TK- (Homo sapiens)): > 10000 nM; EC50 [3]: 27 nM

For `COC(=O)[C@H](C)NP(=O)(OCCSC(=O)C(C)(C)C)OCC1OC(n2cc(C)c(=O)[nH]c2=O)CC1N=[N+]=[N-]` (stereo not given in full), which CC50 (CEM-SS) is on record?
The CC50 was greater than 100000 nM.

What about the EC50 [1] of the same compound?
Its EC50 is 4300 nM.

What about the CC50 (MT4) of the same compound?
Its CC50 is greater than 100000 nM.

And the EC50 [2]?
The EC50 was 340 nM.

And the CC50 (CEM/TK- (Homo sapiens))?
Its CC50 is greater than 100000 nM.

What about the EC50 [3] of the same compound?
The EC50 was 54 nM.

For `COC(=O)[C@H](COC(C)=O)NP(=O)(OCCSC(=O)C(C)(C)C)OCC1OC(n2cc(C)c(=O)[nH]c2=O)CC1N=[N+]=[N-]` (stereo not given in full), which CC50 (CEM-SS) is on record?
The CC50 was greater than 100000 nM.

What about the EC50 [1] of the same compound?
Its EC50 is 16000 nM.

And the CC50 (MT4)?
Its CC50 is greater than 100000 nM.

And the EC50 [2]?
Its EC50 is 53 nM.

And the CC50 (CEM/TK- (Homo sapiens))?
Its CC50 is greater than 100000 nM.

What about the EC50 [3] of the same compound?
The EC50 was 7 nM.

What does the source list for `Cc1cn(C2CC(N=[N+]=[N-])C(COP(=O)(Nc3ccccc3)OCCSC(=O)C(C)(C)C)O2)c(=O)[nH]c1=O` (stereo not given)?
CC50 (CEM-SS): > 10000 nM; EC50 [1]: > 10000 nM; CC50 (MT4): > 10000 nM; EC50 [2]: 700 nM; CC50 (CEM/TK- (Homo sapiens)): > 10000 nM; EC50 [3]: 5 nM

What does the source list for `Cc1cn([C@H]2C[C@H](N=[N+]=[N-])[C@@H](CO)O2)c(=O)[nH]c1=O` [ZIDOVUDINE]?
CC50 (CEM-SS): > 100000 nM; EC50 [1]: > 100000 nM; CC50 (MT4): 75000 nM; EC50 [2]: 17 nM; CC50 (CEM/TK- (Homo sapiens)): > 100000 nM; EC50 [3]: 6 nM
